Source: patent US8389526B2, “3-heteroarylmethyl-imidazo[1,2-b]pyridazin-6-yl derivatives” (Novartis AG, priority 2009, dated 2013)

Assays:
[1] = test system: MET-amplified gastric cancer cell line GTL-16; test: GTL-16 proliferation assay (MTS); format: cell-based; conditions: Homo sapiens, GTL-16 cells, 72 h incubation
Experimental: (§1) C-Met Dependent Cellular Assays
(§2) A number of compounds of the present invention were assayed in a c-Met dependent proliferation and phosphorylation assay as follows.
GTL-16 proliferation assay: the MET-amplified gastric cancer cell line GTL-16 was grown under standard cell culture conditions in DMEM [Dulbecco's Modified Eagle Medium] (high glucose) supplemented with 10% heat-inactivated fetal calf serum and 2 mM L-glutamine. For proliferation assays, cells were seeded at 3000 per well in 96-well-plates. 24 h later, a 10-point dilution series of each compound (3-fold steps, ranging from […]) was prepared in DMSO. Compound were then diluted 1000-fold in growth media in two steps and added to cells in triplicates, resulting in a final volume of […] per well and maximal final compound concentrations of […]. A DMSO-only control was included. Cells were incubated for 72 h and the amount of viable cells was then measured by adding […] of MTS reagent (CellTiter 96® AQueous Non-Radioactive Cell Proliferation Assay, Promega), further incubation for 30′, and reading the optical density at 490 nm.

[2] = target: T1, c-Met receptor tyrosine kinase, GST-c-Met(969-1390) (Homo sapiens, UniProt P08581); test: EPK c-Met profiling assay (LanthaScreen TR-FRET kinase assay); format: biochemical; conditions: 2 μM ATP, 0.3 nM enzyme, 60 minutes at room temperature
T1 construct: made in house
T1 sequence (P08581 969-1390): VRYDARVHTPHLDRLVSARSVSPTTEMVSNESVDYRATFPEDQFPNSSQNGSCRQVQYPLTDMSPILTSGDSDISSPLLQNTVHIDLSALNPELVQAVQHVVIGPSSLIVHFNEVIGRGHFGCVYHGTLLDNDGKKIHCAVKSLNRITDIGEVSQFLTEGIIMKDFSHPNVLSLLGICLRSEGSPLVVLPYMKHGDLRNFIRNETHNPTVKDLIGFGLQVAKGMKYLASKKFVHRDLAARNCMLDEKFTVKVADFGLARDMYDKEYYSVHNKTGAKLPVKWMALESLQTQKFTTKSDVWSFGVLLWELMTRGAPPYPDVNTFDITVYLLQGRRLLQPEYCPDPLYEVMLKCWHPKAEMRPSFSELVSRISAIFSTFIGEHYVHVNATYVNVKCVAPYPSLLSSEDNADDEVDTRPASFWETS
Experimental: A number of compounds of the present invention were assayed in an antibody based kinase phosphorylation assay as follows.
Epk c-Met Profiling Assay:
The EPK kinase assay for c-Met receptor tyrosine kinase was developed, using the purified recombinant GST-fusion protein, containing the cytoplasmic domain of the enzyme. GST-c-Met(969-1390) was purified by affinity chromatography.
The kinase assay is based on the LanthaScreen™ technology. LanthaScreen™ is the detection of Time-Resolved Fluorescence Resonance Energy Transfer (TR-FRET) using lanthanide chelates to measure interactions between various binding partners. In a TR-FRET kinase assay, a long-lifetime lanthanide donor species is conjugated to an antibody that specifically binds to a phosphorylated product of a kinase reaction that is labeled with a suitable acceptor fluorophore. This antibody-mediated interaction brings the lanthanide donor and the acceptor into proximity such that resonance energy transfer can take place, resulting in a detectible increase in the FRET signal.
The kinase reactions were performed in 384 well microtiter plates in a total reaction volume of 9.05 μL. The assay plates were prepared with 0.05 μL per well of test compound in the appropriate test concentration, as described under “preparation of compound dilutions”. The reactions were started by combining 4.5 μL of ATP solution with 4.5 μL of enzyme-substrate mix (consisting of kinase and substrate). The final concentrations in the kinase reactions were 35 mM Tris/HCl, 1 mM DTT, 0.025% Tween20, 10 μM sodium orthovanadate, 0.25% BSA, 0.6% DMSO, 10 mM MgCl2, 3 mM MnCl2, 2 μM ATP, 50 nM Fluorescein-PolyEAY, and 0.3 nM enzyme.
The reactions were incubated for 60 minutes at room temperature and stopped by adding 4.5 μL of stop buffer (50 mM EDTA, 0.04% NP40, 20 mM Tris/HCl).
Subsequently 4.5 μL of detection mix (50 mM Tris/HCl, 2 mM DTT, 0.05% Tween20, 20 μM sodium orthovanadate, 1% BSA, 1.72 μg/mL Tb-PY20 antibody) were added to the stopped reactions. After 30 minutes incubation at room temperature, the plates were measured in a BMG Pherastar fluorescence reader. The effect of compound on the enzymatic activity was in all assays obtained from the linear progress curves and determined from one reading (end point measurement).
Preparation of Compound Dilutions
Test compounds were dissolved in DMSO (10 mM) and transferred into 1.4 mL flat bottom or V-shaped Matrix tubes carrying a unique 2D matrix. The stock solutions were stored at −20° C. if not used immediately. For the test procedure the vials were defrosted and identified by a scanner whereby a working sheet was generated that guided the subsequent working steps.
Compound dilutions were made in 96 well plates. This format enabled the assay of maximally 40 individual test compounds at 8 concentrations (single points) including 4 reference compounds. The dilution protocol included the production of “pre-dilution plates”, “master plates” and “assay plates”.
Pre-dilution plates: 96 polypropylene well plates were used as pre-dilution plates. A total of 4 pre-dilution plates were prepared including 10 test compounds each on the plate positions A1-A10, one standard compound at A11 and one DMSO control at A12. All dilution steps were done on a HamiltonSTAR robot.
Master plates: 100 μL of individual compound dilutions including standard compound and controls of the 4 “pre-dilution plates” were transferred into a 384 “master plate” including the following concentrations 1′820, 564, 182, 54.6, 18.2, 5.46, 1.82 and 0.546 μM, respectively in 90% of DMSO.
Assay plates: Identical “assay plates” were then prepared by pipetting 50 nL each of compound dilutions of the “master plates” into 384-well “assay plates” by means of a HummingBird 384-channel dispenser. These plates were used directly for the assay which was performed in a total volume of 9.05 μL. […]

c-Met = target: T2, c-Met (Homo sapiens, UniProt P08581); test: GTL-16 c-Met autophosphorylation measured by AlphaScreen detection; format: cell-based; conditions: GTL-16 cells, 1 h incubation, AlphaScreen p-c-Met; read-out: GTL-16 IC50 c-Met phosphorylation
T2 construct: adapted to measure the phosphorylation of endogenous cellular proteins in cell lysates; endogenous in cells; host or cells: GTL-16
T2 sequence (P08581 25-1390): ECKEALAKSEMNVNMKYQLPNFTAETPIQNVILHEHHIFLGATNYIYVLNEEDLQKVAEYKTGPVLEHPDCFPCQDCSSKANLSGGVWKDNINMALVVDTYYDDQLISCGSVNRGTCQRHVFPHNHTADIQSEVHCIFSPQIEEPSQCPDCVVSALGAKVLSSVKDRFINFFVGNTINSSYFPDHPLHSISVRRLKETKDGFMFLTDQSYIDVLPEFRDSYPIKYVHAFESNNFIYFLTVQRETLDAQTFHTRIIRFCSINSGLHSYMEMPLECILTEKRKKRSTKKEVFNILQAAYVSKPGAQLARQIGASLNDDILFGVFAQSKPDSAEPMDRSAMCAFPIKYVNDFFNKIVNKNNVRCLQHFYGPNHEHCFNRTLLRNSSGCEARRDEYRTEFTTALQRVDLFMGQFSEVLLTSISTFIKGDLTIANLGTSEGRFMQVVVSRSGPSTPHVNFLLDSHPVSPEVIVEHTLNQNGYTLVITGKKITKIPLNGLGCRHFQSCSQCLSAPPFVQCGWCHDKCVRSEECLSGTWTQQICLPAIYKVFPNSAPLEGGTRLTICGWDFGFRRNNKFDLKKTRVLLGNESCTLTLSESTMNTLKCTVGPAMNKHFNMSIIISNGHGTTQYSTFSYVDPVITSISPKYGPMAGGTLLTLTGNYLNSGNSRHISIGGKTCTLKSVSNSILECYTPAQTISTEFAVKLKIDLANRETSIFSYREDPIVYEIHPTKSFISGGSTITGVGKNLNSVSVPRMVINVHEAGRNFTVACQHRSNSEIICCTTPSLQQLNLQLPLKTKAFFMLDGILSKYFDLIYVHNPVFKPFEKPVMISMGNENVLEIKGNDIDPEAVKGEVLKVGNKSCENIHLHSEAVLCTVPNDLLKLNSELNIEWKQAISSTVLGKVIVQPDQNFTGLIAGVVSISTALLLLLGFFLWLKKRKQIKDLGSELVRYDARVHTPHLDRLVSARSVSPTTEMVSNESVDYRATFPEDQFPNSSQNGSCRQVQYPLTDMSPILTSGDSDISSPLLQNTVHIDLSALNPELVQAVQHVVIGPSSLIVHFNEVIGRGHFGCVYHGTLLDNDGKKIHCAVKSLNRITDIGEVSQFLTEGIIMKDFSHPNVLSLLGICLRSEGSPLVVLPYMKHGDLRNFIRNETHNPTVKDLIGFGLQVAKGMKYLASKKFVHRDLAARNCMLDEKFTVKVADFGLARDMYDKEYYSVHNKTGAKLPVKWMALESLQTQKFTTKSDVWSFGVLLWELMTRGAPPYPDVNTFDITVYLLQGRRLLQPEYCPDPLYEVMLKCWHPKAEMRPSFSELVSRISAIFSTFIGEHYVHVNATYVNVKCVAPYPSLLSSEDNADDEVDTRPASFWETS
Experimental: as §1, §2
GTL-16 c-Met autophosphorylation measured by AlphaScreen® detection: the human MET-amplified gastric cancer cells GTL-16 were plated in 384-well plates at a density of 10′000 cells in 20 ul complete growth medium (DMEM high glucose supplemented with 10% (v/v) heat inactivated fetal calf serum and of 1 mM sodium pyruvate) and were incubated at […]/5% CO2/95% humidity for 20 h. The cells were washed and the 30 ul assay buffer (DMEM high glucose, 1 mM sodium pyruvate, 0.1% bovine serum albumine) was added. Compounds were diluted in 384-well compound plates to obtain 8-point serial dilutions for 40 test compounds in 90% DMSO, as well as a reference compound plus 16 high- and 16 low (inhibited) controls. These compound plates were prediluted 1:200 in assay buffer into a compound predilution plate and 10 ul of prediluted compound solution were transferred to the cell plate using a 384-well pipettor, resulting in a final DMSO concentration of 0.11%. Cells were incubated for 1 h at […]/5% CO2/95% humidity. The supernatant was removed, the cells were lysed in 25 ul of RIPA [radio immuno precipitation assay] lysis buffer supplemented with 2 mM sodium vanadate and a protease inhibitor cocktail, and cell plates were stored at −80° C.
For detection of p-c-Met, an AlphaScreen®-based assay was used. AlphaScreen® (Amplified Luminescent Proximity Homogeneous Assay, ALPHA, Perkin Elmer, U.S.A) is a non-radioactive bead-based proximity assay technology to study biomolecular interactions in a homogenous microtiter plate format. This technique has been adapted to measure the phosphorylation of endogenous cellular proteins in cell lysates by the use of specific antibody pairs against the total protein and a phospho-specific epitope. 5 ul of cell lysate was transferred to 384-well low volume Proxiplates for detection using a 384-well pipettor. First, 5 ul of a premix of an anti-c-Met antibody (0.25 ug/ml f.c.), a biotinylated PY20 antibody (phosphotyrosine antibody, 0.05 ug/ml f.c.) and AlphaScreen® Protein A-coupled acceptor beads (10 ug/ml f.c.) in RIPA buffer supplemented with 0.25% (v/w) TOP BLOCK, 2 mM sodium vanadate, and a protease inhibitor cocktail and was added, the plate was sealed, and incubated on a plate shaker for 2 hours at room temperature. Second, 2 ul of dilution buffer containing AlphaScreen® Streptavidin-coated donor beads (10 ug/ml f.c.) in RIPA buffer was added, and the plate was incubated on plate shaker as above for a further 2 hours. The plate was read on an AlphaScreen® compatible plate reader, using standard AlphaScreen® settings.

SMILES | IC50 [1] | IC50 [2] | IC50 (c-Met)
CC(c1c(F)cc2c(cnn2C)c1F)c1cnc2ccc(N3CCN(C)C(=O)C3)nn12 (racemic) [Example 49, (rac)-4-(3-(1-(4,6-difluoro-1-methyl-1H-indazol-5-yl)ethyl)imidazo[1,2-b]pyridazin-6-yl)-1-methylpiperazin-2-one] | 29 nM | 16 nM | 6.5 nM
CC(c1c(F)cc2c(cnn2C)c1F)c1cnc2ccc(N3CCNC(=O)C3)nn12 (racemic) [Example 51] | 16 nM | 22 nM | 8 nM
CC(c1c(F)cc2c(cnn2C(C)C)c1F)c1cnc2ccc(N3CCN(C)C(=O)C3)nn12 (racemic) [Example 56, (rac)-4-(3-(1-(4,6-difluoro-1-isopropyl-1H-indazol-5-yl)ethyl)imidazo[1,2-b]pyridazin-6-yl)-1-methylpiperazin-2-one] | 49 nM | 27 nM | 7 nM
CC(c1c(F)cc2c(cnn2C(C)C)c1F)c1cnc2ccc(N3CCNC(=O)C3)nn12 (racemic) [Example 57, (rac)-4-(3-(1-(4,6-difluoro-1-isopropyl-1H-indazol-5-yl)ethyl)imidazo[1,2-b]pyridazin-6-yl)piperazin-2-one] | 36 nM | 17 nM | 9 nM
CC1C(=O)NCCN1c1ccc2ncc([C@@H](C)c3c(F)cc4ncccc4c3F)n2n1 (mixture of isomers) [Example 58, (rac)-4-{3-[(S)-1-(5,7-Difluoro-quinolin-6-yl)-ethyl]-imidazo[1,2-b]pyridazin-6-yl}-3-methyl-piperazin-2-one] | 7.1 nM | 2.7 nM | 3.7 nM
C[C@@H](c1c(F)cc2ncccc2c1F)c1cnc2ccc(N3CCN(C)CC3)nn12 [Example 9, 5,7-Difluoro-6-{(S)-1-[6-(4-methyl-piperazin-1-yl)-imidazo[1,2-b]pyridazin-3-yl]-ethyl}-quinoline] | 10 nM | 2.9 nM | 2.2 nM
C[C@@H](c1c(F)cc2ncccc2c1F)c1cnc2ccc(N3CCN(C=O)CC3)nn12 [Example 13, 4-{3-[(S)-1-(5,7-Difluoro-quinolin-6-yl)-ethyl]-imidazo[1,2-b]pyridazin-6-yl}-piperazine-1-carbaldehyde] | 9.2 nM | < 3 nM | 2.5 nM
C[C@@H](c1c(F)cc2ncccc2c1F)c1cnc2ccc(N3CCN(C(N)=O)CC3)nn12 [Example 16, 4-{3-[(S)-1-(5,7-Difluoro-quinolin-6-yl)-ethyl]-imidazo[1,2-b]pyridazin-6-yl}-piperazine-1-carboxylic acid amide] | 15 nM | 1.7 nM | 5.5 nM
C[C@@H](c1cc2cnn(C)c2cc1F)c1cnc2ccc(N3CCN(C)C(=O)C3)nn12 [Example 26, 4-{3-[(S)-1-(6-Fluoro-1-methyl-1H-indazol-5-yl)-ethyl]-imidazo[1,2-b]pyridazin-6-yl}-1-methyl-piperazin-2-one] | 66 nM | 26 nM | 10 nM
CC(=O)N1CCN(c2ccc3ncc([C@@H](C)c4cc5cnn(C)c5cc4F)n3n2)CC1 [Example 29, 1-(4-{3-[(S)-1-(6-Fluoro-1-methyl-1H-indazol-5-yl)-ethyl]-imidazo[1,2-b]pyridazin-6-yl}-piperazin-1-yl)-ethanone] | 136 nM | 55 nM | 25 nM
CN1CCN(c2ccc3ncc(Cc4c(F)cc5ncccc5c4F)n3n2)CC1=O [Example 30, 4-[3-(5,7-Difluoro-quinolin-6-ylmethyl)-imidazo[1,2-b]pyridazin-6-yl]-1-methyl-piperazin-2-one] | 37 nM | 6.6 nM | < 3 nM
O=C1CN(c2ccc3ncc(Cc4c(F)cc5ncccc5c4F)n3n2)CCN1 [Example 31, 4-[3-(5,7-Difluoro-quinolin-6-ylmethyl)-imidazo[1,2-b]pyridazin-6-yl]-piperazin-2-one] | 15 nM | 8.2 nM | 4.7 nM
Fc1cc2ncccc2c(F)c1Cc1cnc2ccc(N3CCNCC3)nn12 [Example 32, 5,7-Difluoro-6-(6-piperazin-1-yl-imidazo[1,2-b]pyridazin-3-ylmethyl)-quinoline] | 25 nM | 7.4 nM | < 3 nM
CN1CCN(c2ccc3ncc(Cc4c(F)cc5ncccc5c4F)n3n2)CC1 [Example 33, 5,7-Difluoro-6-[6-(4-methyl-piperazin-1-yl)-imidazo[1,2-b]pyridazin-3-ylmethyl]-quinoline] | 46 nM | 14 nM | 9 nM
CC(=O)N1CCN(c2ccc3ncc(Cc4c(F)cc5ncccc5c4F)n3n2)CC1 [Example 34, 1-{4-[3-(5,7-Difluoro-quinolin-6-ylmethyl)-imidazo[1,2-b]pyridazin-6-yl]-piperazin-1-yl}-ethanone] | 65 nM | 10 nM | 7 nM
